For one assay, the target named is TLR4 (Homo sapiens, UniProt O00206). Nature of the assay: TLR4 inhibitory and activating activity in THP-1 cells at low and high concentrations. The format is cell-based. Details: endogenous in cells; host or cells: THP-1 (human monocytic) cells.
Assay [1] deals with VEGF induced tube formation in HUVECs. In words: Anti-angiogenic activity, Tube Formation kit, VEGF induced. The format is cell-based, human. The note with it: VEGF 100ng/mL. Here is the method: Selected TLR2/4 antagonist compounds 2, 6, 7, 8, 14, 17 and 32 were evaluated for anti-angiogenic activity using the Tube Formation kit (Cat#3470-096-K). VEGF (100ng/mL) was used as positive control. These compounds have potential applications in diseases associated with pathological angiogenesis such as solid tumor, […], diabetic retinopathy as well as AMD.

Assay [2] relates to hyperoxia induced BPD in mouse pups. In words: Hyperoxia-exposed BPD mouse model (newborn pups). The format is in vivo. The text has this:
Neonatal mice and humans undergo similar stages of lung development but differ with respect to the duration of each stage and its temporal relationship to gestational age. The lungs of the mouse born at term are in the saccular stage and are surfactant sufficient; this can be considered somewhat akin to a human preterm neonate in the same stage of lung development that has been exposed to a full complement of antenatal steroids (which is known to enhance surfactant production). In terms of mimicking the human condition, the most successful hyperoxia models are those that limit exposure to hyperoxia to the saccular stage of pulmonary development. The mouse BPD model involves exposing newborn mice (postnatal day 1 or PN1) to 100% oxygen till PN4 followed by recovery in room air (RA) for another 10 days.
After the recovery period, their lungs were harvested and processed for quantitative PCR, western blotting, histopathology and ELISA.
After the recovery period, their lungs were harvested and processed for quantitative PCR, western blotting and histopathology and ELISA.
BPD is characterized by large simplified alveoli, inflammation, increased cell death, decreased cell proliferation, dysmorphic capillary configuration, and variable interstitial cellularity and/or fibroproliferation. […] This is determined by measuring the alveolar chord length, septal thickness and radial alveolar count (RAC). In BPD, the alveolar area increases which is characterized by increase in the diameter of the alveolar sacs, the septa become thickened (thus interfering in gaseous exchange) and the RAC, a parameter used to assess the complexity of terminal respiratory unit by pulmonologists, decreases as a result of arrested lung development.

Assay [3] deals with P. aeruginosa (ATCC-10145 GFP) infected skin wounds. In words: Murine study of skin wound infection. The assay is classed as in vivo, C57BL6 mice. The procedure:
Five groups of C57BL/6 mice (8-10 weeks old, n = 4) were wounded on the dorsal surface. 25µl containing 10^6 CFU/mL P. aeruginosa in a PBS suspension were pipetted onto the wound and allowed to absorb for at least 3 min. […] Subsequently and for the next 13 days, infected wounds were treated each alternate day with colistin, or with test compounds.
Along with that less focal inflammation is observed in compound treated groups vs PA group.

“Also recorded” adds a separate entry of the source.

Sequence of TLR4 (O00206 24-839): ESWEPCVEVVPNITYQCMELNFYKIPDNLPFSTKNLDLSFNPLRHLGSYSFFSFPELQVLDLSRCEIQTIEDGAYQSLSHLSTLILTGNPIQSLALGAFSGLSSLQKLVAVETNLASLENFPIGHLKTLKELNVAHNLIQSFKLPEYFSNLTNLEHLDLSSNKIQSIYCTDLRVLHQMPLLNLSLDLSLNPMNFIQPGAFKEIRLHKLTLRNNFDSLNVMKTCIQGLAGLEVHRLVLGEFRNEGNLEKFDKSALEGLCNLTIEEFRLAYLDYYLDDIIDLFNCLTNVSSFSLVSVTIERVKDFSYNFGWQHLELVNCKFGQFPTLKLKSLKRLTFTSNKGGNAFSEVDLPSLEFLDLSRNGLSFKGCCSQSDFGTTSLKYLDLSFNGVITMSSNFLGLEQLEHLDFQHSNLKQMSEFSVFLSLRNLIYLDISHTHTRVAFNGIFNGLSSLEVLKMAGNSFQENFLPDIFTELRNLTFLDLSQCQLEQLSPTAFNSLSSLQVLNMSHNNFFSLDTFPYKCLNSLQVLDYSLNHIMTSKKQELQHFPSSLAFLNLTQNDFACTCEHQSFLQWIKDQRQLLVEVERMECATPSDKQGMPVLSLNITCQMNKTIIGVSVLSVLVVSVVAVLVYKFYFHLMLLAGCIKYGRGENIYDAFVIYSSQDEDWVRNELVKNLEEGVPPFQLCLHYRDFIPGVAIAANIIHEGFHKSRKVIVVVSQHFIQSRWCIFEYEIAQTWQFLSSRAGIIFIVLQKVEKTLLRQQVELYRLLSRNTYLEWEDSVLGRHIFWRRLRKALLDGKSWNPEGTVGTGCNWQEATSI
Sequence of TLR4 (Q9Y6Y9 17-160 partner limits assumed): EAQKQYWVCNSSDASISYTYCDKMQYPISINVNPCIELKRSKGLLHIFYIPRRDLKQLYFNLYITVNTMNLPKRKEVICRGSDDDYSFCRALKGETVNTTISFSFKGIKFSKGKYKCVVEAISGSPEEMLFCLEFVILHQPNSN

For `CC(=O)N[C@H]1[C@H](Oc2ccc([N+](=O)[O-])cc2)O[C@H](CO)[C@@H](O)[C@@H]1O` [Compound 8, p-Nitrophenyl 2-acetamido-2-deoxy-β-D-glucopyranoside], the “% inhibition over control TLR4” value on TLR4 (Concentration 1-10 µM, THP-1 cells) is recorded as “+++ (+++ means that the % of inhibition or activation is in the range of 75-95%)”. Also, at TLR4 (Concentration 75-100 µM, THP-1 cells), the “% activation over control TLR4” value is given as “++ (++ means that the % of inhibition or activation is in the range of 25-75%)”. For the same molecule, the TLR4 modulatory activity entry on TLR4 (summary in words) is given as “concentration dependent TLR4 modulatory activity”. Besides, the “VEGF induced tube formation” value in assay [1] was “significantly decreased”. Besides, in assay [2] (10mg/kg, ELISA (FIG. 26)), the IFN-Y result is reported as “decreases”, the IL-1β entry is “decreases”, the IL-6 entry is reported as “decreases” and the IL-17 result is on record as “decreases”. In assay [2] (10mg/kg, ELISA (FIG. 26)), the MCP-1 result was “decreases”, the MIP-2 entry is “decreases” and the TNF-α entry is “decreases”. Further, in assay [2] (10mg/kg, ELISA (FIG. 26H)), the “anti-inflammatory cytokine IL-10” value is given as “increase”. The “hyperoxia induced BPD” value in assay [2] (IP and IV, saline solution, 5mg/kg or 10 mg/kg on PN2 and PN4 (FIG. 24)) is “prevent”. Moreover, in assay [2] (IP injection (FIG. 25)), the chord length result is “improvement”, the radial alveolar count entry is reported as “improvement” and the septal thickness result is given as “improvement”. In addition, in assay [2] (after injections), the “Inflammatory cytokines in lung tissue and serum” value is “decreased”. For the same molecule, the “TLR4 inhibition in vivo” value in assay [2] (neonatal pups with BPD) is recorded as “inhibit”. Besides, the lung architecture entry in assay [2] (saline (IV) and nanosuspension (IN) formulation) is “restored”. Also, the “CFU in tissues / bacterial counts” value in assay [3] (13 days post infection, vs untreated control) is “decreased; also recorded: statistically significant reduction”. Moreover, in assay [3] (H&E histology, day 13 post-injury, vs controls, p=0.050 (Colistin, compound 1), p=0.073 (compound 8)), the “Re-epithelialization and granulation tissue” value is recorded as “borderline non-significant”. In assay [3] (topical, each alternate day, day 13, compounds 100µM / 100µg /ml, Colistin 4µg/ml), the “closure of P. aeruginosa infected skin wounds” value is listed as “effectively closed; also recorded: complete closure”.
